In patent US20240358693A1, “METHODS OF TREATING PAIN” (Aisa Pharma, Inc., priority 2023, published 2024):

Tested on: participants with SSc-RP
Test: Scleroderma Health Assessment Questionnaire (SHAQ): disability indices and visual analog scales
Format: in vivo, human
How it was run: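 Participants with SSc-RP completed the SHAQ at screening and each in-clinic visit. Standard and alternative disability indices (eight categories, 0–3; standard adjusts for aids/assistance) plus Raynaud's VAS on interference over the past 7 days. Reported as absolute change from baseline to end of each dosing period.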

[1] = Modified ITT, Part A, dose Cilnidipine 10 mg, Tadalafil 5 mg, or 10 mg + 5 mg
[2] = PP Population, Part A, sensitivity analysis, cilnidipine 10 mg and/or tadalafil 5 mg as labelled
[3] = Tadalafil 5 mg (N = 4), Modified ITT, Part A
[4] = Tadalafil 5 mg (N = 4), patients with diagnosis of SSc, sensitivity analysis, Modified ITT, Part A
[5] = Tadalafil 5 mg, Day 12, PP Population Part A, SSc patients
[6] = Tadalafil 5 mg, Day 12, PP Population, Part A
[7] = Tadalafil 5 mg, PP Population Part A, SSc patients

CN1CC(=O)N2[C@H](c3ccc4c(c3)OCO4)c3[nH]c4ccccc4c3C[C@@H]2C1=O [Tadalafil, tadalafil]
SHAQ alternative disability index, In Clinic Visit (Day 12), Mean [1]: 0.375
SHAQ alternative disability index, In Clinic Visit (Day 12), Median [1]: 0.250
SHAQ Visual Analogue Scale - Breathing Problems: Baseline, Mean [2]: 3.240
SHAQ Visual Analogue Scale - Breathing Problems: Baseline, Median [2]: 3.100
SHAQ Visual Analogue Scale - Breathing Problems: Change from Baseline (Day 12), Mean [2]: 0.500
SHAQ Visual Analogue Scale - Breathing Problems: Change from Baseline (Day 12), Median [2]: 1.050
SHAQ Visual Analogue Scale - Breathing Problems: In-Clinic Visit (Day 12), Mean [2]: 4.300
SHAQ Visual Analogue Scale - Breathing Problems: In-Clinic Visit (Day 12), Median [2]: 4.000
SHAQ Visual Analogue Scale - Breathing Problems: Percent Change from Baseline (Day 12), Mean [2]: −2.66%
SHAQ Visual Analogue Scale - Breathing Problems: Percent Change from Baseline (Day 12), Median [2]: 29.58%
SHAQ Visual Analogue Scale - Finger Ulcers: Baseline, Mean [2]: 1.700
SHAQ Visual Analogue Scale - Finger Ulcers: Baseline, Median [2]: 0.100
SHAQ Visual Analogue Scale - Finger Ulcers: Change from Baseline (Day 12), Mean [2]: 0.250
SHAQ Visual Analogue Scale - Finger Ulcers: Change from Baseline (Day 12), Median [2]: 0.000
SHAQ Visual Analogue Scale - Finger Ulcers: In-Clinic Visit (Day 12), Mean [2]: 2.325
SHAQ Visual Analogue Scale - Finger Ulcers: In-Clinic Visit (Day 12), Median [2]: 0.050
SHAQ Visual Analogue Scale - Finger Ulcers: Percent Change from Baseline (Day 12), Mean [2]: 6.10%
SHAQ Visual Analogue Scale - Finger Ulcers: Percent Change from Baseline (Day 12), Median [2]: 6.10%
SHAQ Visual Analogue Scale - Intestinal Problems: Baseline, Mean [2]: 2.700
SHAQ Visual Analogue Scale - Intestinal Problems: Baseline, Median [2]: 0.900
SHAQ Visual Analogue Scale - Intestinal Problems: Change from Baseline (Day 12), Mean [2]: −0.125
SHAQ Visual Analogue Scale - Intestinal Problems: Change from Baseline (Day 12), Median [2]: 0.000
SHAQ Visual Analogue Scale - Intestinal Problems: In-Clinic Visit (Day 12), Mean [2]: 3.025
SHAQ Visual Analogue Scale - Intestinal Problems: In-Clinic Visit (Day 12), Median [2]: 1.450
SHAQ Visual Analogue Scale - Intestinal Problems: Percent Change from Baseline (Day 12), Mean [2]: −6.92%
SHAQ Visual Analogue Scale - Intestinal Problems: Percent Change from Baseline (Day 12), Median [2]: 0.00%
SHAQ Visual Analogue Scale - Overall Disease Severity: Baseline, Mean [2]: 4.100
SHAQ Visual Analogue Scale - Overall Disease Severity: Baseline, Median [2]: 5.500
SHAQ Visual Analogue Scale - Overall Disease Severity: Change from Baseline (Day 12), Mean [2]: 0.625
SHAQ Visual Analogue Scale - Overall Disease Severity: Change from Baseline (Day 12), Median [2]: 0.700
SHAQ Visual Analogue Scale - Overall Disease Severity: In-Clinic Visit (Day 12), Mean [2]: 5.600
SHAQ Visual Analogue Scale - Overall Disease Severity: In-Clinic Visit (Day 12), Median [2]: 6.550
SHAQ Visual Analogue Scale - Overall Disease Severity: Percent Change from Baseline (Day 12), Mean [2]: 32.49%
SHAQ Visual Analogue Scale - Overall Disease Severity: Percent Change from Baseline (Day 12), Median [2]: 26.79%
SHAQ Visual Analogue Scale - Raynaud's: Baseline, Mean [2]: 4.860
SHAQ Visual Analogue Scale - Raynaud's: Baseline, Median [2]: 6.400
SHAQ Visual Analogue Scale - Raynaud's: Change from Baseline (Day 12), Mean [2]: −0.825
SHAQ Visual Analogue Scale - Raynaud's: Change from Baseline (Day 12), Median [2]: −0.500
SHAQ Visual Analogue Scale - Raynaud's: In-Clinic Visit (Day 12), Mean [2]: 4.950
SHAQ Visual Analogue Scale - Raynaud's: In-Clinic Visit (Day 12), Median [2]: 5.200
SHAQ Visual Analogue Scale - Raynaud's: Percent Change from Baseline (Day 12), Mean [2]: −19.71%
SHAQ Visual Analogue Scale - Raynaud's: Percent Change from Baseline (Day 12), Median [2]: −20.67%
SHAQ Overall Severity: Baseline, Mean [3]: 4.975
SHAQ Overall Severity: Baseline, Median [3]: 6.000
SHAQ Overall Severity: Change from Baseline, Mean [3]: 0.625,
SHAQ Overall Severity: Change from Baseline, Median [3]: 0.700
SHAQ Overall Severity: Day 12, Mean [3]: 5.600
SHAQ Overall Severity: Day 12, Median [3]: 6.550
SHAQ Overall Severity: Percent Change from Baseline, Mean [3]: 32.49%
SHAQ Overall Severity: Percent Change from Baseline, Median [3]: 26.790%
SHAQ Standard Disability Index: Baseline, Mean [4]: 0.594
SHAQ Standard Disability Index: Baseline, Median [4]: 0.625
SHAQ Standard Disability Index: Change from Baseline, Mean [4]: −0.063
SHAQ Standard Disability Index: Change from Baseline, Median [4]: −0.063
SHAQ Standard Disability Index: Day 12, Mean [4]: 0.531
SHAQ Standard Disability Index: Day 12, Median [4]: 0.563
SHAQ Standard Disability Index: Percent Change from Baseline, Mean [4]: −9.26%
SHAQ Standard Disability Index: Percent Change from Baseline, Median [4]: −11.11%
SHAQ Visual Analogue Scale - Breathing Problems, Change from Baseline, Mean [5]: 0.500
SHAQ Visual Analogue Scale - Breathing Problems, Change from Baseline, Median [5]: 1.050
SHAQ Visual Analogue Scale - Breathing Problems, Percent Change from Baseline, Mean [5]: −2.66%
SHAQ Visual Analogue Scale - Breathing Problems, Percent Change from Baseline, Median [5]: 29.58%
SHAQ Visual Analogue Scale - Finger Ulcers, Change from Baseline, Mean [5]: 0.250
SHAQ Visual Analogue Scale - Finger Ulcers, Change from Baseline, Median [5]: 0.000
SHAQ Visual Analogue Scale - Finger Ulcers, Percent Change from Baseline, Mean [5]: 6.10%
SHAQ Visual Analogue Scale - Finger Ulcers, Percent Change from Baseline, Median [5]: 6.10%
SHAQ Visual Analogue Scale - Intestinal Problems, Change from Baseline, Mean [5]: −0.125
SHAQ Visual Analogue Scale - Intestinal Problems, Change from Baseline, Median [5]: 0.000
SHAQ Visual Analogue Scale - Intestinal Problems, Percent Change from Baseline, Mean [5]: −6.92%
SHAQ Visual Analogue Scale - Intestinal Problems, Percent Change from Baseline, Median [5]: 0.00%
SHAQ Visual Analogue Scale - Overall Disease Severity, Change from Baseline, Mean [5]: 0.625
SHAQ Visual Analogue Scale - Overall Disease Severity, Change from Baseline, Median [5]: 0.700
SHAQ Visual Analogue Scale - Overall Disease Severity, Percent Change from Baseline, Mean [5]: 32.49%
SHAQ Visual Analogue Scale - Overall Disease Severity, Percent Change from Baseline, Median [5]: 26.79%
SHAQ Visual Analogue Scale - Pain, Change from Baseline, Mean [5]: 1.000
SHAQ Visual Analogue Scale - Pain, Change from Baseline, Median [5]: 0.800
SHAQ Visual Analogue Scale - Pain, Percent Change from Baseline, Mean [5]: 31.35%
SHAQ Visual Analogue Scale - Pain, Percent Change from Baseline, Median [5]: 10.81%
SHAQ Visual Analogue Scale - Raynaud's, Change from Baseline, Mean [5]: −0.825
SHAQ Visual Analogue Scale - Raynaud's, Change from Baseline, Median [5]: −0.500
SHAQ Visual Analogue Scale - Raynaud's, Percent Change from Baseline, Mean [5]: −19.71%
SHAQ Visual Analogue Scale - Raynaud's, Percent Change from Baseline, Median [5]: −20.67%
SHAQ Alternative Disability Index: Change from Baseline, Mean [6]: −0.094
SHAQ Alternative Disability Index: Change from Baseline, Median [6]: −0.125
SHAQ Alternative Disability Index: In-Clinic Visit (Day 12), Mean [6]: 0.375
SHAQ Alternative Disability Index: In-Clinic Visit (Day 12), Median [6]: 0.250
SHAQ Alternative Disability Index: Percent Change from Baseline, Mean [6]: −43.70%
SHAQ Alternative Disability Index: Percent Change from Baseline, Median [6]: −20.00%
SHAQ Standard Disability Index: Change from Baseline, Mean [6]: −0.063
SHAQ Standard Disability Index: Change from Baseline, Median [6]: −0.063
SHAQ Standard Disability Index: In-Clinic Visit (Day 12), Mean [6]: 0.531
SHAQ Standard Disability Index: In-Clinic Visit (Day 12), Median [6]: 0.563
SHAQ Standard Disability Index: Percent Change from Baseline, Mean [6]: −9.26%
SHAQ Standard Disability Index: Percent Change from Baseline, Median [6]: −11.11%
SHAQ Visual Analogue Scale - Pain: Change from Baseline, Mean [6]: 1.000
SHAQ Visual Analogue Scale - Pain: Change from Baseline, Median [6]: 0.800
SHAQ Visual Analogue Scale - Pain: In-Clinic Visit (Day 12), Mean [6]: 5.300
SHAQ Visual Analogue Scale - Pain: In-Clinic Visit (Day 12), Median [6]: 5.850
SHAQ Visual Analogue Scale - Pain: Percent Change from Baseline, Mean [6]: 31.35%
SHAQ Visual Analogue Scale - Pain: Percent Change from Baseline, Median [6]: 10.81%
SHAQ Visual Analogue Scale - Breathing Problems, In-Clinic Visit (Day 12), Mean [7]: 4.300
SHAQ Visual Analogue Scale - Breathing Problems, In-Clinic Visit (Day 12), Median [7]: 4.000
SHAQ Visual Analogue Scale - Finger Ulcers, In-Clinic Visit (Day 12), Mean [7]: 2.325
SHAQ Visual Analogue Scale - Finger Ulcers, In-Clinic Visit (Day 12), Median [7]: 0.050
SHAQ Visual Analogue Scale - Intestinal Problems, In-Clinic Visit (Day 12), Mean [7]: 3.025
SHAQ Visual Analogue Scale - Intestinal Problems, In-Clinic Visit (Day 12), Median [7]: 1.450
SHAQ Visual Analogue Scale - Overall Disease Severity, In-Clinic Visit (Day 12), Mean [7]: 5.600
SHAQ Visual Analogue Scale - Overall Disease Severity, In-Clinic Visit (Day 12), Median [7]: 6.550
SHAQ Visual Analogue Scale - Pain, In-Clinic Visit (Day 12), Mean [7]: 5.300
SHAQ Visual Analogue Scale - Pain, In-Clinic Visit (Day 12), Median [7]: 5.850
SHAQ Visual Analogue Scale - Raynaud's, In-Clinic Visit (Day 12), Mean [7]: 4.950
SHAQ Visual Analogue Scale - Raynaud's, In-Clinic Visit (Day 12), Median [7]: 5.200
